# What was measured:
# CYP2C9 [1] = tested on: CYP2C9; design: method as in Makia et al. [2014]; conditions: cFos and JunD binding to CYP2C9 promoter; ref Makia et al. [2014]; cited from earlier work
# CYP2B6 = experiment: CYP phenotyping cocktail clinical study: efavirenz/8-OH-efavirenz metabolic ratio and its association with PCB plasma levels; conditions: linear regression of MR AUC0–8 h 8-OH-efavirenz/efavirenz (CYP2B6 activity) on PCB plasma concentration
# Protocol: (§1) The participants were ascertained not to have any acute disease by medical history, physical examination, laboratory screening, including hematological and biochemical blood tests, and a 12-lead electrocardiogram. […] The demographic data of the subjects are summarized in Table 1 in the supplemental data. At the enrollment visit, 2 blood samples (9 ml each) were collected into ethylenediaminetetraacetic acid (EDTA)-containing tubes taken from each subject for analyzing the plasma concentrations of PCB congeners and for pharmacogenetic analysis.
# (§2) Participants stayed fasted from the evening before until 3 h after drug administration. After that, a meal was provided. Water and juice were permitted but alcoholic and caffeinated beverages were not allowed from the evening before drug administration until the last blood sample was taken on the next day. Venous blood samples (9 ml each) were collected through an intravenous catheter immediately before and 0.25, 0.5, 0.75, 1, 1.5, 2, 2.5, 3, 4, 5, 6, 7, 8, and 24 h after drug administration. Blood was drawn into EDTA-coated tubes, centrifuged at 1500 g for 10 min at 4 °C, and plasma samples were subsequently stored at − 80 °C until further analysis. After completely voiding the bladder immediately before drug administration, the participants collected urine from 0 to 24 h after drug administration. After weighing the collected urine, a 10 ml aliquot of each fraction was taken.
# (§3) Commercially sourced standards and internal standards were used for quantification (see Supplemental Materials). In brief, 20 µl of the plasma samples were protein-precipitated with 80 µl methanol containing all internal standards or were treated for 16 h at 37 °C with 2 µl β-glucuronidase (1,000,000 Units) for deconjugation before protein precipitation with 78 µl methanol containing internal standards. Samples were centrifuged for 20 min, at 4 °C and 17,000 × g, and 40 µl of the supernatants were diluted with 40 µl LC–MS grade water, centrifuged again for 5 min at 4 °C and 17,000 × g and 50 µl supernatant were transferred to LC–MS vials 5 µl of the samples were injected into the LC–MS system.
# (§4) An Agilent 1290 Infinity II UHPLC coupled with a SCIEX QTRAP6500 + triple quadrupole mass spectrometer was used. Chromatographic separation was achieved on an Agilent Poroshell 120 EC-C18 (1.9 µm, 2.1 × 50 mm) column with A: 0.1% formic acid in water and B: methanol with a flow rate of 0.7 ml/min and a total run time of 8.5 min. Analytes were eluted using a gradient program. The following gradient steps represent gradual changes in % B over time: 5% B from 0 to 0.2 min, 30% B at 2 min, 34% B at 4.8 min, 95% B at 6.5 min, 95% B at 7.5 min and re-equilibrating to 5% B at 7.7 min and 5%B till 8.5 min. A representative chromatogram is shown in supplemental Fig. 2. The scheduled MRM mode was applied for analyte detection in both positive and negative ESI modes (Supplementary Table 4). Calibration curves were constructed with linear regression using weighted (1/x^2) models (detailed information in supplemental methods).
# (§5) Partial areas under the plasma concentration–time curves from 0 to 3 h (AUC0–3 h), from 0 to 4 h (AUC0–4 h), and from 0 to 8 h (AUC0–8 h) were calculated based on measured concentrations by the linear trapezoidal rule without extrapolation. […] Metabolic ratios (MR) were calculated by dividing the partial AUC of the metabolite by the respective partial AUC of the parent drug. The MRs were used as biomarkers for the individual CYP activities of the study subjects.
# CYP2C9 [2] = experiment: CYP phenotyping cocktail clinical study: torsemide/OH-torsemide metabolic ratio and its association with PCB plasma levels
# Protocol: as §1, §2, §3, §4, §5
# CYP2D6 = experiment: CYP phenotyping cocktail clinical study: metoprolol/α-OH-metoprolol metabolic ratio and its association with PCB plasma levels; conditions: linear regression of MR AUC0–8 h α-OH-metoprolol/metoprolol (CYP2D6 activity) on PCB plasma concentration
# Protocol: as §1, §2, §3, §4, §5
# [3] = Determination of PCB concentrations in plasma of HELPcB and control participants; format: in vivo; conditions: human plasma
# Protocol: The laboratory regularly participates in round robins for the determination of PCBs in plasma (www.g-equas.de).
# Plasma concentrations of PCB congeners were quantified in blood samples from all participants using gas chromatography/mass spectrometry (GC–MS) (Fig. 2A and Supplementary Table 2). A total of 19 PCB congeners were measured in control (n = 10) and HELPcB (n = 10) participants, with PCBs detected in all individuals. […] In the control group, PCB plasma concentrations primarily reflected background environmental exposure, such as dietary intake, representing the general population’s burden.
# [4] = biological target: HEK293 cells overexpressing CYP2C9 (Homo sapiens, UniProt P11712); conditions: 0.1, 0.5, 1 µM PCB74, 24 h, then 10 µM torsemide 24 h
# Protocol: (§6) CYP1A2 and CYP2C9 enzyme activity was first assessed using a luciferase-based P450-Glo™ screening system (Promega, Madison, WI, USA) following the manufacturer’s instructions. The reaction mixture consisted of 1 nM recombinant enzyme (CYP1A2 or CYP2C9), 250 µM luciferin–ME substrate, 0.1 M potassium phosphate buffer (pH 7.4), and an NADPH regeneration system (including NADP⁺, glucose-6-phosphate, MgCl₂, and glucose-6-phosphate dehydrogenase), in a total volume of 50 µL. Controls for enzyme inhibition included α-naphthoflavone (1 µM) for CYP1A2 and sulfaphenazole (2 µM) for CYP2C9. After preincubation at 37 °C for 10 min (excluding NADPH), the reaction was initiated by adding the NADPH regeneration system and incubated for 30 min. To terminate the reaction and generate luminescence, 50 µL of Luciferin Detection Reagent was added, followed by a 20-min incubation at room temperature. Luminescence was measured using a luminometer, with light intensity proportional to CYP activity. […] Enzyme activity was quantified relative to a d-luciferin standard curve and expressed as pmol luciferin/min/pmol CYP. […] Cells were maintained at 37 °C with 5% CO₂ throughout the experiment. […] Supernatants were transferred to LC–MS vials and analyzed for relevant metabolites. Details on metabolite quantification are provided in the supplemental file. […]
# recombinant CYP2C9 = recombinant CYP2C9 (Homo sapiens, UniProt P11712); conditions: PCB74 1–10 µM; Luciferin–ME substrate
# Protocol: as §6
# CYP2C9 mRNA = conditions: primary human hepatocytes, three donors, 48 h exposure; PCB74 0.1 and 0.5 µM
# CYP1A2 = tested on: CYP1A2; design: method as in Solan and Lavado [2023]; conditions: ref Solan and Lavado [2023]; cited from earlier work
# [5] = linear regression of MR AUC0–8 h OH-torsemide/torsemide (CYP2C9 activity) on PCB plasma concentration
# Chain of recombinant CYP2C9 (P11712 whole entry): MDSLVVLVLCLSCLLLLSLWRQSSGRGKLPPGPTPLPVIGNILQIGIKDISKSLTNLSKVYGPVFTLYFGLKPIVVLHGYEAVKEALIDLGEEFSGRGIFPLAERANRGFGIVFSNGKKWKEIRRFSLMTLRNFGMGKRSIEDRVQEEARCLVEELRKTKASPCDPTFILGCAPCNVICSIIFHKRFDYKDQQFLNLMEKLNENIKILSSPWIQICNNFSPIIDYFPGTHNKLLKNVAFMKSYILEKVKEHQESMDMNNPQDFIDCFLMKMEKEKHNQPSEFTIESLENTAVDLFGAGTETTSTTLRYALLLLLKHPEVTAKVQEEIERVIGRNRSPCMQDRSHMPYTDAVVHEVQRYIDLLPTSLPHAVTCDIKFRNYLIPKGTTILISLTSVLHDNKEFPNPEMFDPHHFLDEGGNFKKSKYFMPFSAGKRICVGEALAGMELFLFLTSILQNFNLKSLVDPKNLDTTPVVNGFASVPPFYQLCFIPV
# Chain of HEK293 cells overexpressing CYP2C9 (P11712 whole entry): as above
smiles,measurement,setting,value
"CC(C)(C)c1cc(O)ccc1O [tBHQ, tert-butylhydroquinone]",effect on CYP2C9 expression,CYP2C9 [1],induces CYP2C9 expression via AP-1 activation
Clc1ccc(-c2cc(Cl)c(Cl)cc2Cl)cc1 [PCB74],t value,CYP2B6,"0,808"
same,β (standardized regression coefficient),CYP2B6,"0,204"
same,t value,CYP2B6; PM excl,"0,622"
same,β (standardized regression coefficient),CYP2B6; PM excl,"0,170"
same,association with CYP2C9 activity in hierarchical generalized mixed model,"CYP2C9 [2]; adjusted for co-factors (smoking status, gender, BMI, age)","became significant when BMI, gender, or all factors were included as co-factors"
same,t value,CYP2C9 [2]; [5],"1,826"
same,β (standardized regression coefficient),CYP2C9 [2]; [5],"0,395"
same,t value,"CYP2C9 [2]; linear regression of MR AUC0–8 h OH-torsemide/torsemide (CYP2C9 activity) on PCB plasma concentration, PM excl","1,723"
same,t value,CYP2D6,"1,723"
same,β (standardized regression coefficient),CYP2D6,"0,376"
same,"PCB plasma concentration, Mean [±SD] HELPcB",[3]; HELPcB (occupationally exposed) group,0.129 ± 0.121 ng/mL
same,"PCB plasma concentration, Geometric mean, HELPcB","[3]; HELPcB group, N 10",0.086 ng/mL
same,"PCB plasma concentration, Mean [±SD] all",[3]; all participants,0.071 ± 0.102 ng/mL
same,"PCB plasma concentration, Mean [±SD] control",[3]; control group (background exposure),0.014 ± 0.011 ng/mL
same,"PCB plasma concentration, Geometric mean, Control","[3]; control group, N 10",0.010 ng/mL
same,effect on CYP2C9 activity in HEK293 cells (torsemide probe),[4],did not significantly modulate CYP2C9 activity
same,effect on CYP2C9 enzyme activity (luminescence),recombinant CYP2C9,remained unaffected
same,effect on CYP2C9 mRNA expression,CYP2C9 mRNA,did not significantly increase CYP2C9 mRNA expression
O=S(=O)(O)C(F)(F)C(F)(F)C(F)(F)C(F)(F)C(F)(F)C(F)(F)C(F)(F)C(F)(F)F [PFOS],effect on CYP1A2 activity,CYP1A2,inhibits CYP1A2 activity

# Reference: PMC12477080, “Polychlorinated biphenyls (PCBs) interact with drug metabolism in vivo” (Archives of Toxicology, 2025)
